How the values were obtained:
rat anti-β1EC2 = experiment: Competition-ELISA, blocking of rat anti-β1EC2; type: binding; conditions: preincubation (12h, 4°C) with 40-fold excess of peptide; linear β1EC2-peptides (AA199-223) as antigen; n = 20 (Fig. 1B)
[1] = system: anti-β1EC2-induced β1-AR/cAMP signaling in HEKβ1-cells; experiment: FRET cAMP assay (Epac1-camps), blockade of anti-β1EC2-induced signals; type: cell-based, human; conditions: HEKβ1-cells with Epac1-camps FRET-sensor; IgG pre-incubated with peptide (Fig. 1F)
Method: The effects of anti-β1EC2 on β1AR-mediated intracellular cAMP-production were assessed by measuring fluorescence resonance energy transfer (FRET) in HEKβ1-cells transiently transfected with a FRET-sensor for cAMP, Epac1-camps. The sensor consists of the cAMP-binding protein Epac1 flanked by enhanced cyan or yellow fluorescent protein. […] IgG-preparations were added to the cells at 0.13 μg/μl protein concentration; 2μM (-)isoproterenol (Sigma) was used as a reference to determine the maximal cAMP-response. To test the blocking-efficacy of β1EC2-CP on anti-β1EC2-induced adrenergic signaling, the different IgG-preparations were pre-incubated with β1EC2-CP (20 μg/μl) for 6 h at 4 °C; for pharmacological blockade of anti-β1EC2-induced signals we utilised 5.0μM bisoprolol.
(D) Immunostaining experiments with rat anti- β1EC2 (1:100) using HEK-cells stably expressing β1-ARs (HEK β1) or not (wild type; HEK WT). IgG was prepared from anti- β1EC2-positive rats or 0.9% NaCl-injected control rats. Amino-terminal β1AR-specific rabbit anti-bodies (1:250) served as positive controls. […] HEK β1-cells were transfected with the cAMP-sensor Epac1-camps, which reacts to cAMP-binding with a reduction in fluorescence resonance energy transfer (FRET) between its fluorophores cyan (CFP) and yellow fluorescent protein (YFP). […] Representative FRET-ratio traces of 1/5 experiments are shown. Values are given in % of maximal cAMP-response achieved with 0.3μM (-)isoproterenol (Iso).

“cyclo(RATHQEAINCYANETCCDFFTNQG) (cysteine pairing not given here) [β2EC2-CP, control for specificity, reference compound]” was tested, and the “blocking of anti-β1EC2 in competition-ELISA, in words” value (rat anti-β1EC2) was “not blocked at all” and the “blockade of anti-β1EC2-induced cAMP-signals, in words” value [1] was “not blocked at all”.

From article PMC4336331, “Novel Receptor-Derived Cyclopeptides to Treat Heart Failure Caused by Anti-β1-Adrenoceptor Antibodies in a Human-Analogous Rat Model” (PLoS ONE, 2015)
